Reference: patent publication US11419902B2, “Compositions comprising bacterial strains” (4D Pharma Research Limited, priority 2018, dated 2022)

What was measured:
PBMCs = experiment: Cytokine analysis of PBMCs from healthy donors (multiplex immunoassay); format: cell-based, human; conditions: PBMC culture, 10% bacteria supernatant, 72 h
Description: Frozen healthy human PBMCs were purchased from Stem Cells Technologies (Cambridge UK). Briefly cells were thaw and left to rest overnight in full growth media (RPMI 1640 with 10% FBS, 2 mM L. Glutamine, 55 μM 2-Mercapoethanol and 100 U/ml penicillin, 100 μg/ml streptomycin) in CO2 incubator at 37° C. For the experiment cells were plated at a density of 750,000 Cell/well in 48 well plates and treated in full growth media with 10% bacteria supernatants in the presence or absence of 1 ng/ml LPS. Cell culture media was added to untreated wells. Cells were left to rest for 72 h, thereafter cell free supernatants were collected and spun down for 3 minutes at 10,000 g at 4° C. Samples were stored at −80° C. for cytokine analysis.
PBMCs were treated as described in Example 5.
Cytokine quantification was conducted using a ProcartaPlex multiplex immunoassay following the manufacturer's recommendations (Thermo Fischer Scientific). Briefly, 50 μl of cell-free co-culture supernatants were used for cytokine quantification using a MAGPIX® MILLIPLEX® system (Merck) with the xPONENT software (Luminex, Austin, Tex., USA). Data was analysed using the MILLIPLEX® analyst software (Merck) using a 5-parameter logistic curve and background subtraction to convert mean fluorescence intensity to pg/ml values.

HDAC = HDAC inhibition on whole HT-29 cells; format: cell-based
Description: Pure cultures of bacteria were grown anaerobically in YCFA+ broth until they reached their stationary growth phase. Cultures were centrifuged at 5,000×g for 5 minutes and the cell-free supernatant (CFS) was filtered using a […] (Millipore, UK). 1 mL aliquots of the CFS were stored at −80° C. until use. Sodium butyrate, hexanoic and valeric acid were obtained from Sigma Aldrich (UK) and suspensions were prepared in YCFA+ broth.
To investigate which metabolites were responsible for the strain-induced HDAC inhibition, different concentrations of hexanoic acid, valeric acid and sodium butyrate were measured for their HDAC inhibition on whole HT-29 cells and on HT-29 cell lysate.

[1] = system: Occludin, Villin, TJP1 and TJP2; experiment: Tight junction protein gene expression in HT29-mtx cells (qRT-PCR); format: cell-based; conditions: 2 h incubation
Source text: The ability of MRx0029 to cause any intestinal barrier dysfunction was investigated. HT29-mtx epithelial, mucin-producing cell monolayers were used as an in vitro model to evaluate gut barrier disruption and immune stimulation following treatment with MRx0029.
Total RNA was extracted using the RNeasy mini kit (Qiagen, Manchester, JUK) according to the manufacturer's instructions, and the RNA concentration determined by absorbance at 260/280 nm using a spectrophotometer (nano-Drop ND-1000; Thermo Scientific, Wilmington, Del.). For mRNA expression analysis, cDNA was prepared from total RNA using the High-Capacity cDNA reverse transcription kit (Applied Biosystems, UK) according to the manufacturer's instructions. The reverse transcription reactions were performed in a Thermo cycler (Biometra, Germany) at 25° C. for 10 min, 37° C. for 120 min, and 85° C. for 5 min, hold on at 4° C. Resulting cDNA was amplified in duplicates by the SYBR-Green PCR assay, and products were detected on QuantStudio 6 flex real-time PCR machine (Applied Biosystems, UK) using a standardised profile (initial denaturation of 95° C. for 10 minutes, followed by 40 cycles of 15 seconds of denaturation at 95° C. and 60 seconds of annealing/extension at 60/65° C., depending on the primers. A dissociation stage was added after the 40 cycles to generate a melting curve. Analysis was performed using the Applied Biosystems QuantStudio Real-Time PCR Software v1.2.
RNA was isolated and Quantitative RT-PCR (qRT-PCR) analysis was performed to characterize the changes in gene expression of tight junction proteins during incubation with MRx0029. The administration of MRx0029 enhanced Occludin, Villin, Tight Junction Protein 1 and 2 (respectively TJP1 and TJP2) mRNA expression after 2 h incubation (FIG. 14B).

colon = experiment: Intestinal permeability assay (Ussing chambers); format: in vivo; conditions: colon of mice fed with MRx0029
Description: Animals were allowed to habituate to their holding room for one week after arrival into the animal unit. They receive oral gavage (200 μL dose) of live biotherapeutics at a dose of 1×10^9 CFU for 6 consecutive days between 15:00 and 17:00. On day 7, the animals are decapitated, and tissues are harvested for experimentation. Animals were sacrificed in a random fashion regarding treatment and testing condition; sampling occurred between 9.00 a.m. and 2:30 p.m. Trunk blood was collected in potassium EDTA (Ethylene Diamine Tetra Acetic Acid) tubes and spun for 15 min at 4000 g. Plasma was isolated and stored at −80° C. for further analysis. The brain was quickly excised, dissected and each brain region was snap-frozen on dry ice and stored at −80° C. for further analysis. Spleen was removed, collected in 5 mL RPMI media (with L-glutamine and sodium bicarbonate, R8758 Sigma+10% FBS (F7524, Sigma)+1% Pen/Strep (P4333, Sigma)) and processed immediately after culls for ex-vivo immune stimulation. Intestinal tissue (2 3 cm segments of ileum and colon closest to the caecum were excised, and the furthest 1 cm 2 cm of tissue from the caecum were used) were mounted into the Ussing chambers for intestinal permeability assay. The caecum was removed, weighted and stored at −80° C. for SCFAs analysis.

IL-6, CD11b, TLR4 = experiment: Gene expression in the brain of BALB/c mice (qPCR); format: in vivo; conditions: vs vehicle control
Description: BALB/c mice were administered live biotherapeutic and tissues were isolated for analysis of gene expression using qPCR.

Substance: Megasphaera massiliensis MRx0029
- expression of IL-1β (PBMCs): increased the expression
- expression of IL-6 (PBMCs): increased the expression
- expression of IL-10 (PBMCs): increased the expression
- expression of IL-23 (PBMCs): increased the expression
- expression of MIP-3α (PBMCs): increased the expression
- expression of TNF-α (PBMCs): increased the expression
- HDAC inhibition on whole HT-29 cells (HDAC): strong HDAC inhibition
- Occludin mRNA expression [1]: enhanced
- TJP1 mRNA expression [1]: enhanced
- TJP2 mRNA expression [1]: enhanced
- Villin mRNA expression [1]: enhanced
- permeability function in the colon (colon): decrease the permeability function
- TLR4 expression in the amygdala (IL-6, CD11b, TLR4): significantly increase TLR4 expression
